Measured values reported in US8906946B2, “TRPM8 receptor antagonists” (Dompe' S.p.A., priority 2011, dated 2014).
pIC50: −log10 of the molar value.

Legend:
human TRPM8 [1] = biological target: T1, human TRPM8 (Homo sapiens, UniProt Q7Z2W7); assay: High-throughput FLIPR TETRA calcium fluorescence assay for TRPM8 antagonists in HEK293/hTRPM8 cells; assay type: cell-based; set-up: expressed in transfected cells; conditions: agonist Cooling Agent 10 at EC80, Ca2+ fluorescence
Description: A functional cell-based assay for the identification of TRPM8 receptor antagonists, optimised to allow high throughput screening at FLIPR^TETRA, was developed in HEK293 cells by stable pure clone selection and functional characterization with a fluorescent calcium sensitive dye.
TRPM8 was cloned into the multiple clonig site of pcDNA3 mammalian expression vector; the obtained construct pcDNA3/hTRPM8 was fully sequence verified and used for the transfection of HEK293 cell line. HEK293 cells stably transfected with TRPM8 gene were maintained in Minimum essential medium. The cells were transfected with the pcDNA3/hTRPM8 vector by electroporation and then selected with medium containing 0.8 mg/ml G418 for 10-15 days.
The following commercial compounds were used as ligands: • Activator: Cooling Agent 10 (Takasago CAS N. 87061-04-9) • Blocker: Capsazepine (SIGMA cat #D—5879)
The experimental activities were performed using FLIPR^TETRA instruments.
HEK293 cells stably transfected with TRPM8 gene were maintained in Minimum essential medium.
The TRPM8 cell line was analysed for the response to a library of compounds using a Ca^2+ mobilization-dependent fluorescence signal in 384 wells microtiter plate format. The analysis was performed using the FLIPR^TETRA (MDC) with the ICCD Camera.
The execution of the assay involved the use of three microtiter plates:
1. Assay plate, containing cells loaded with dye and prepared as follows:
Cells were seeded at 15000 c/well in Poly-D-Lysine coated 384 wells Microtiter Plates in complete medium (25 μl/well).
24 h after seeding, the cell plates were washed with Tyrode assay buffer by the Microplate Washer and 10 μL of Tyrode assay buffer was left in each well.
Cells were then loaded with 10 μL/well of the Fluo-4 NW dye solution by CyBi®-Well pipettor. Each bottle of Fluo4-NW dye (Molecular Probes cat. #F36206, component A) was re-suspended in 8 mL of Tyrode assay buffer and supplemented with 100 μL of water-soluble probenecid (MolecularProbes cat.#F36206, component B).
Dye loaded cell plates were incubated for 1 h at room temperature.
2. Compound Dilution Plate (FIG. 1), containing diluted test compounds, formulated as follows: • Column 1: wells containing Assay Buffer plus DMSO 0.5% final • Column 2: wells alternating Max Signal Control in first injection (Maximum Response: Cooling Agent 10 at EC100, 100 μM) and Min Signal Control in first injection (Assay buffer plus 0.5% DMSO final); • Columns 3-22: wells containing Assay Buffer plus 0.5% DMSO final. To these wells the compounds to be tested were added at 3× concentration. • Column 23: alternating wells of Max Signal Control in second injection (Assay buffer) and Min Signal Control in second injection (Antagonist Capsazepine IC100, 50 μM) in Assay buffer plus 0.5% DMSO final; • Column 24: wells containing Capsazepine (Antagonist) at 8 concentrations in duplicate at final concentrations of […] in Assay buffer plus 0.5% DMSO final.
3. Activator Plate (FIG. 2), containing agonist Cooling Agent 10 at EC80, formulated as follows: • Column 1: Cooling Agent 10 (Agonist) at 8 concentrations dose response in duplicate at final concentrations of […] in Assay buffer; • Columns 2-24: Cooling Agent 10 (Agonist) at EC80 (3 fold concentrated, 20 μM final) in Assay buffer.
The test was carried out according to a procedure comprising the following steps: • 1. The samples contained in the wells of the Compound Plate were added to the corresponding wells of the Assay Plate by the FLIPR^TETRA, thus resulting in the addition in Columns 3-22 of the test compounds at 3× concentration to the cells of the assay plates. No mixing was performed in the assay wells and the signal of the emitted fluorescence was recorded for 300 seconds. • 2.

human TRPM8 [2] = biological target: T1, human TRPM8; assay: FLIPR384 capsazepine antagonist activity on menthol agonist response in selected TRPM8 clone; assay type: cell-based; set-up: expressed in transfected cells; conditions: FLIPR384, antagonist from 100 nM to 316 μM
Method: The experimental activities were performed using FLIPR instruments.
Patch clamp recordings were also obtained in voltage-clamp configuration on HEK/TRPM8 clones in order to verify the receptor pharmacology and to determine the agonist dose-response curve and EC50 value. HEK293 cells were […] having 1.5-2.5 MΩ resistance were used to record currents following drug application. […] No menthol-induced currents were recorded in non transfected HEK293 cells.

T1 sequence (Q7Z2W7 whole entry): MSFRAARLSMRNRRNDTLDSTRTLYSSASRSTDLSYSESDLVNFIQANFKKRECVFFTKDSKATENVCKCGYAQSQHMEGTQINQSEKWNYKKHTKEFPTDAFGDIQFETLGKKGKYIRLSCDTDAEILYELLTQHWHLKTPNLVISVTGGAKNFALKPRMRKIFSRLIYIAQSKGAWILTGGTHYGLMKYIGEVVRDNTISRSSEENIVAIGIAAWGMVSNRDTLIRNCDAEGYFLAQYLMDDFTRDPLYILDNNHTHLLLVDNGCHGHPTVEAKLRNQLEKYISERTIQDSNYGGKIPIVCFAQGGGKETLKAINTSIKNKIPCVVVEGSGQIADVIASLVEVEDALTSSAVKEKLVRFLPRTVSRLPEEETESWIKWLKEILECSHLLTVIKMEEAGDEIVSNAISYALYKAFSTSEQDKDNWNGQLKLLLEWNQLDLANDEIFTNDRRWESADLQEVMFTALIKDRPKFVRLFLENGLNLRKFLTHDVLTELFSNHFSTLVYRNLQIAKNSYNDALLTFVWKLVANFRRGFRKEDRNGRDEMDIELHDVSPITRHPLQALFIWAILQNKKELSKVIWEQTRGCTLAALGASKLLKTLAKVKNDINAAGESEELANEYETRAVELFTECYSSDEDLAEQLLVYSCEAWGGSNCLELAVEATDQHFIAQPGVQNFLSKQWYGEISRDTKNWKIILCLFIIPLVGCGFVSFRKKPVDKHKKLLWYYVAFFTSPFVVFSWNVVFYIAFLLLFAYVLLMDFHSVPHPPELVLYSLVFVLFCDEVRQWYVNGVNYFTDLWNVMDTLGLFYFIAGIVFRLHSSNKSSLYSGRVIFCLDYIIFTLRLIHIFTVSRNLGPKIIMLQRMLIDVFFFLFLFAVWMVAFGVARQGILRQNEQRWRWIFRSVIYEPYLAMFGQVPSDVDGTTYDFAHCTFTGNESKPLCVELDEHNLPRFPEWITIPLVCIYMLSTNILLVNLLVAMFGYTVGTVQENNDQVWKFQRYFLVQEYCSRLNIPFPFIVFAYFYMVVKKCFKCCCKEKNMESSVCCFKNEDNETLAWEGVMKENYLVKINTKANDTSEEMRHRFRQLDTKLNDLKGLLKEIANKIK

Structure (SMILES) | pIC50 (human TRPM8 [1]) | pIC50 (human TRPM8 [2])
Clc1c(OCCNCc2ccccn2)ccc2ccccc12 [Compound 6, 2-[(1-chloronaphthalen-2-yl)oxy]-N-(pyridin-2-ylmethyl)ethanaminium] | > 5.00 | –
CC(C)(COc1ccc2ccccc2c1Cl)NCc1ccco1 [Compound 8, 1-[(1-chloronaphthalen-2-yl)oxy]-N-(furan-2-ylmethyl)-2-methylpropan-2-amine] | > 5.00 | –
Cn1cccc1CNC(C)(C)COc1ccc2ccccc2c1Cl [Compound 14, 1-[(1-chloronaphthalen-2-yl)oxy]-2-methyl-N-[(1-methyl-1H-pyrrol-2-yl)methyl]propan-2-amine] | > 5.00 | –
Cc1ccc(CNCCCc2ccc3ccccc3c2Cl)o1 [Compound 33, 3-(1-chloronaphthalen-2-yl)-N-[(5-methylfuran-2-yl)methyl]propan-1-amine] | > 5.00 | –
Clc1ccc(CNCCCc2ccc3ccccc3c2Cl)o1 [Compound 34, N-[(5-chlorofuran-2-yl)methyl]-3-(1-chloronaphthalen-2-yl)propan-1-amine] | > 5.00 | –
Clc1ccc(CNCCCc2ccc3ccccc3c2Cl)s1 [Compound 35, 3-(1-chloronaphthalen-2-yl)-N-[(5-chlorothiophen-2-yl)methyl]propan-1-amine] | > 5.00 | –
Fc1c(OCCNCc2cccs2)ccc2ccccc12 [Compound 52, 2-[(1-fluoronaphthalen-2-yl)oxy]-N-(thiophen-2-ylmethyl)ethanamine] | > 5.00 | –
N#Cc1ccc2c(Cl)c(OCCNCc3ccccn3)ccc2c1 [Compound 55, 5-chloro-6-{2-[(pyridin-2-ylmethyl)amino]ethoxy}naphthalene-2-carbonitrile] | > 5.00 | –

Further lines, results first:

pIC50 (human TRPM8 [1]) | pIC50 (human TRPM8 [2]) | Structure (SMILES)
> 5.00 | – | Clc1c(OCCNCc2cccs2)ccc2ccccc12 [Compound 5, 2-[(1-chloronaphthalen-2-yl)oxy]-N-(thiophen-2-ylmethyl)ethanaminium]
> 5.00 | – | CC(C)(COc1ccc2ccccc2c1Cl)NCc1ccccn1 [Compound 13, 1-[(1-chloronaphthalen-2-yl)oxy]-2-methyl-N-(pyridin-2-ylmethyl)propan-2-amine]
> 5.00 | – | O=S(=O)(CCNCc1ccco1)c1ccc2ccccc2c1Cl [Compound 25, 2-[(1-chloronaphthalen-2-yl)sulfonyl]-N-(furan-2-ylmethyl)ethanamine]
> 5.00 | – | Clc1c(CCCNCc2ccco2)ccc2ccccc12 [Compound 32, 3-(1-chloronaphthalen-2-yl)-N-(furan-2-ylmethyl)propan-1-amine]
> 5.00 | – | Fc1c(OCCNCc2ccco2)ccc2ccccc12 [Compound 48, 2-[(1-fluoronaphthalen-2-yl)oxy]-N-(furan-2-ylmethyl)ethanamine]
> 5.00 | – | Fc1c(OCCNCc2ccccn2)ccc2ccccc12 [Compound 53, 2-[(1-fluoronaphthalen-2-yl)oxy]-N-(pyridin-2-ylmethyl)ethanamine]
> 5.00 | – | N#Cc1ccc2c(Cl)c(OCCNCc3cccs3)ccc2c1 [Compound 60, 5-chloro-6-{2-[(thiophen-2-ylmethyl)amino]ethoxy}naphthalene-2-carbonitrile]
– | 4.70 | Oc1cc2c(cc1O)CN(C(=S)NCCc1ccc(Cl)cc1)CCC2 [capsazepine, Capsazepine]
